The target of one assay is T1, HCV NS5B polymerase (Hepatitis C virus genotype 1a, UniProt P27958).
T1 construct: pre-incubated with the RNA template and NS5B polymerase protein; purchased Replizyme
Briefly: Replizyme HCV heterotemplate radioactive RNA-dependent RNA-polymerase (RdRp) assay. The assay is classed as biochemical. The settings on record: pre-incubated 30 minutes at 37° C., reaction 90 minutes at 37° C.; read-out: HCV NS5B inhibition EC50. On the procedure:
The compounds were tested in the Replizyme HCV heterotemplate radioactive RNA-dependent RNA-polymerase (RdRp) assay. The test compounds were pre-incubated with the RNA template and NS5B polymerase protein at 37° C. for 30 minutes. The RdRp reaction was initiated with the addition of the NTPs to the buffer-NS5B-compound mix, and was allowed to proceed for 90 minutes at 37° C. Control reactions included: no enzyme, 5% DMSO (test compound solvent), no compound/solvent, Cordycepin-TP and HCV-796 (IC50 values used as a reference inhibition). Radioactive products were collected by applying the stopped reaction to DE-81 paper, air dried prior to washing with buffer comprising NaH2PO4 and sodium pyrophosphate to remove unincorporated ^32P-GTP in the NTP mix, and rinsed with dH2O followed by 100% ethanol. The DE-81 paper was air dried, squares cut out and placed in scintillation tubes for counting.

For the next assay, the system named is HCV Replicon. Briefly: HCV Replicon inhibition. The assay is classed as cell-based. The settings on record: Hepatitis C virus. (Replicon systems follow genome replication, usually without infectious particles.)

Structures are written as SMILES.

T1 sequence (P27958 2421-3011): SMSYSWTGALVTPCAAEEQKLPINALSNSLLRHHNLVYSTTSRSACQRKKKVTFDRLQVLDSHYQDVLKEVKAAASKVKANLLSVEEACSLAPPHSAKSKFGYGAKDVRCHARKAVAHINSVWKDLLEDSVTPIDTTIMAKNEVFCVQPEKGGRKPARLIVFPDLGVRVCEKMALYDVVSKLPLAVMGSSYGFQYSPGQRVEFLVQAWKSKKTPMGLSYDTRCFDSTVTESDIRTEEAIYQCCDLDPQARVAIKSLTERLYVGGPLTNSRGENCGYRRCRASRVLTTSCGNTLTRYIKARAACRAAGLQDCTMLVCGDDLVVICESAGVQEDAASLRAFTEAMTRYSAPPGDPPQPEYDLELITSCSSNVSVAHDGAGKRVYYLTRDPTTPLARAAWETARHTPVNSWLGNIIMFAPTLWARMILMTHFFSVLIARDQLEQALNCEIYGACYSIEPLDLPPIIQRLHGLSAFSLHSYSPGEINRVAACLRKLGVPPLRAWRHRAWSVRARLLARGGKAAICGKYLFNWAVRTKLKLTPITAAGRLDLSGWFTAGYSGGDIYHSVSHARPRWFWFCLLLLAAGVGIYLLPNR

The EC50 is the concentration giving half of the maximal effect. With `CS(=O)(=O)Nc1ccc2c(c1)S(=O)(=O)N=C(c1c(O)n3ccccc3c(Cc3cc(F)cc(F)c3)c1=O)N2` [Compound 105S], the concentration for a half-maximal effect (EC50) on HCV NS5B polymerase and in the assay with HCV Replicon was below 100 nM in each case.

Consider `CS(=O)(=O)Nc1ccc2c(c1)S(=O)(=O)N=C(c1c(O)n3cc(F)ccc3c(Cc3ccc(F)c(F)c3)c1=O)N2` [Compound 102S], for which the EC50 on HCV NS5B polymerase and with HCV Replicon was below 100 nM throughout.

Consider `CS(=O)(=O)Nc1ccc2c(c1)S(=O)(=O)N=C(c1c(O)n3cc(F)ccc3c(Cc3ccc(F)cc3)c1=O)N2` [Compound 103S], for which the EC50 on HCV NS5B polymerase and in the assay with HCV Replicon was below 100 nM each time.

In the case of `CC(C)(C)CCc1c(=O)c(C2=NS(=O)(=O)c3cc(NS(C)(=O)=O)ccc3N2)c(O)n2cc(F)ccc12` [Compound 104S], the EC50 at HCV NS5B polymerase and with HCV Replicon was below 100 nM each time.

For `CS(=O)(=O)Nc1ccc2c(c1)S(=O)(=O)N=C(c1c(O)n3cc(F)ccc3c(Cc3cc(F)cc(F)c3)c1=O)N2` [Compound 101], the EC50 at HCV NS5B polymerase and in the assay with HCV Replicon was below 100 nM throughout.
